The source of these data is PMC9116130 (Biochemical pharmacology, 2020).

The target of data set [1] is hNaV1.1 (Homo sapiens, UniProt P35498). Put plainly: Two-electrode voltage-clamp on Xenopus laevis oocytes expressing NaV1.1. In general terms: Two-electrode voltage clamp is typically applied to oocytes expressing channels or transporters.
In data set [2] the target is rNaV1.2 (Rattus norvegicus, UniProt P04775). The data set can be described thus: Two-electrode voltage-clamp on Xenopus laevis oocytes expressing NaV1.2. Conditions: for inhibition at 100 µM: read-out: Maximum % inhibition NaV1.2, peptide at 100 μM.
For data set [3], the target named is rNaV1.3 (Rattus norvegicus, UniProt P08104). The data set can be described thus: Two-electrode voltage-clamp on Xenopus laevis oocytes expressing NaV1.3.
For data set [4], the target named is rNaV1.4 (Rattus norvegicus, UniProt P15390). Put plainly: Two-electrode voltage-clamp on Xenopus laevis oocytes expressing NaV1.4. Conditions: for inhibition at 100 µM: read-out: Maximum % inhibition NaV1.4, peptide at 100 μM.
Data set [5] concerns the target hNaV1.5 (Homo sapiens, UniProt Q14524). The data set can be described thus: Two-electrode voltage-clamp on Xenopus laevis oocytes expressing NaV1.5. Conditions: for inhibition at 100 µM: read-out: Maximum % inhibition NaV1.5.
Data set [6] addresses mNaV1.6 (Mus musculus, UniProt Q9WTU3). Put plainly: Two-electrode voltage-clamp on Xenopus laevis oocytes expressing NaV1.6. Conditions: for inhibition at 100 µM: read-out: Maximum % inhibition NaV1.6, peptide at 100 μM.
For data set [7], the target named is rNaV1.7 (Rattus norvegicus, UniProt O08562). The data set can be described thus: Two-electrode voltage-clamp on Xenopus laevis oocytes expressing NaV1.7.
Sequence of rNaV1.7 (O08562 whole entry): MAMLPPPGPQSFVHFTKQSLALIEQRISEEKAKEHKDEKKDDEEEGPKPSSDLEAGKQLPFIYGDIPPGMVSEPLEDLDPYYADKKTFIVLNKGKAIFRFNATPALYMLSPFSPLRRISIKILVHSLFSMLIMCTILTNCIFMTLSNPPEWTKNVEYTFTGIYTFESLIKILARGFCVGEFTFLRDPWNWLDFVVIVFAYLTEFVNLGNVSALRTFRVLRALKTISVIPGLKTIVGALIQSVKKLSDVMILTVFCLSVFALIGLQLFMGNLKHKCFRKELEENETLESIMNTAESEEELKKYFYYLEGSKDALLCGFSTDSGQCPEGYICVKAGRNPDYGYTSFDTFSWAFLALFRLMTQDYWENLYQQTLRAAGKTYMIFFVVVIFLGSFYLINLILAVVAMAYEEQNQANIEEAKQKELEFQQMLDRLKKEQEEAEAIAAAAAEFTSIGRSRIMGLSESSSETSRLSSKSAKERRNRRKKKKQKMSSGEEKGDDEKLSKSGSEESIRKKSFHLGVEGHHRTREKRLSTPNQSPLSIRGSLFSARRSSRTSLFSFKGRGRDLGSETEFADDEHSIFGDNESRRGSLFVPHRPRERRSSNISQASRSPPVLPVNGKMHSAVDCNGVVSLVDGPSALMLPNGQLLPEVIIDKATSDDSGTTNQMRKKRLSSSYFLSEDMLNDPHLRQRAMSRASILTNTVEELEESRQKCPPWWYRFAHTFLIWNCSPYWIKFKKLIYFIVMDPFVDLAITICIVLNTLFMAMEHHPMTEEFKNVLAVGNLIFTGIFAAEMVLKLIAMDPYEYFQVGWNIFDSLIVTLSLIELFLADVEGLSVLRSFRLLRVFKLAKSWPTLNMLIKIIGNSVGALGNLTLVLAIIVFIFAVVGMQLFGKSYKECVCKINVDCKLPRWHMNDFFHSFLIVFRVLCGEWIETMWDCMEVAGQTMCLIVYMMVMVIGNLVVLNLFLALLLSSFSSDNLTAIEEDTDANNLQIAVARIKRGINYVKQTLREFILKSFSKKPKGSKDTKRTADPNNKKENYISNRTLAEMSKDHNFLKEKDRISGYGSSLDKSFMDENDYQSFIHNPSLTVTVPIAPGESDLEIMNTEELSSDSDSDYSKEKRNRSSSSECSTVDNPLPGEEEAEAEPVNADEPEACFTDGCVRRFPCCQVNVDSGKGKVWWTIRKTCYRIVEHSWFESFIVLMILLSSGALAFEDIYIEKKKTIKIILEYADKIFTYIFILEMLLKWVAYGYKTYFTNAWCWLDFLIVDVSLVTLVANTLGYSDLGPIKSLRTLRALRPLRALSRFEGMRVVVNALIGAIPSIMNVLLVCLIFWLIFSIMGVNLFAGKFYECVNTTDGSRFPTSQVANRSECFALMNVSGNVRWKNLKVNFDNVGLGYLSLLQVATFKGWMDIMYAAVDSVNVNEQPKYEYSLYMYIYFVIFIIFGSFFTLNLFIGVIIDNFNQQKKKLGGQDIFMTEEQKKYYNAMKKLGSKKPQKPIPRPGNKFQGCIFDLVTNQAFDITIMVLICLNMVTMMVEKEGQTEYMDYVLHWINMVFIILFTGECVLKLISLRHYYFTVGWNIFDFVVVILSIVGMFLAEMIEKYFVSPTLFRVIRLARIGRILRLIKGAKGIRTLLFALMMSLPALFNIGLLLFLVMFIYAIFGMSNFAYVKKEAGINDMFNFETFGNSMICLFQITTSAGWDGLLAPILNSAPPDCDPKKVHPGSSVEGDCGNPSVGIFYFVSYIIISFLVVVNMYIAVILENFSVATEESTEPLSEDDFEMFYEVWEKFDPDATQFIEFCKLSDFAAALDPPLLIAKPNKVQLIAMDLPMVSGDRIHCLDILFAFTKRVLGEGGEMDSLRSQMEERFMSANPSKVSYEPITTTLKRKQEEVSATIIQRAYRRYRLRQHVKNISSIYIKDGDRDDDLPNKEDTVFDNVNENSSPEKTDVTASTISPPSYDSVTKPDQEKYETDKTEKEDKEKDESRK
Sequence of rNaV1.7 (Q00954 19-218 partner): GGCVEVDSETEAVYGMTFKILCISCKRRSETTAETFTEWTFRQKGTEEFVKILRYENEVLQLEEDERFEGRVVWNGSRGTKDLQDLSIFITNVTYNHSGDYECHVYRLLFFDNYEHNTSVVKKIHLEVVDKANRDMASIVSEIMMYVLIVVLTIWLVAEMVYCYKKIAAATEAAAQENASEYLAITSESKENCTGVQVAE
Data set [8] has as its target rNaV1.8 (Rattus norvegicus, UniProt Q62968). The data set can be described thus: Two-electrode voltage-clamp on Xenopus laevis oocytes expressing NaV1.8. Conditions: for inhibition at 100 µM: read-out: Maximum % inhibition NaV1.8.
In data set [9] the test system is NaV1.2, NaV1.4, NaV1.5 and NaV1.6. Conditions: 100 μM.
Data set [10] has as its system inflammatory pain models. Conditions: in vivo; cited from earlier work.

Read-outs that look alike come from different tables or passages of the source. Where a SMILES comes first, the peptide text is derived from it. Bridges are numbered along the chain shown (N, C = ends).

Sequence of rNaV1.8 (Q62968 whole entry): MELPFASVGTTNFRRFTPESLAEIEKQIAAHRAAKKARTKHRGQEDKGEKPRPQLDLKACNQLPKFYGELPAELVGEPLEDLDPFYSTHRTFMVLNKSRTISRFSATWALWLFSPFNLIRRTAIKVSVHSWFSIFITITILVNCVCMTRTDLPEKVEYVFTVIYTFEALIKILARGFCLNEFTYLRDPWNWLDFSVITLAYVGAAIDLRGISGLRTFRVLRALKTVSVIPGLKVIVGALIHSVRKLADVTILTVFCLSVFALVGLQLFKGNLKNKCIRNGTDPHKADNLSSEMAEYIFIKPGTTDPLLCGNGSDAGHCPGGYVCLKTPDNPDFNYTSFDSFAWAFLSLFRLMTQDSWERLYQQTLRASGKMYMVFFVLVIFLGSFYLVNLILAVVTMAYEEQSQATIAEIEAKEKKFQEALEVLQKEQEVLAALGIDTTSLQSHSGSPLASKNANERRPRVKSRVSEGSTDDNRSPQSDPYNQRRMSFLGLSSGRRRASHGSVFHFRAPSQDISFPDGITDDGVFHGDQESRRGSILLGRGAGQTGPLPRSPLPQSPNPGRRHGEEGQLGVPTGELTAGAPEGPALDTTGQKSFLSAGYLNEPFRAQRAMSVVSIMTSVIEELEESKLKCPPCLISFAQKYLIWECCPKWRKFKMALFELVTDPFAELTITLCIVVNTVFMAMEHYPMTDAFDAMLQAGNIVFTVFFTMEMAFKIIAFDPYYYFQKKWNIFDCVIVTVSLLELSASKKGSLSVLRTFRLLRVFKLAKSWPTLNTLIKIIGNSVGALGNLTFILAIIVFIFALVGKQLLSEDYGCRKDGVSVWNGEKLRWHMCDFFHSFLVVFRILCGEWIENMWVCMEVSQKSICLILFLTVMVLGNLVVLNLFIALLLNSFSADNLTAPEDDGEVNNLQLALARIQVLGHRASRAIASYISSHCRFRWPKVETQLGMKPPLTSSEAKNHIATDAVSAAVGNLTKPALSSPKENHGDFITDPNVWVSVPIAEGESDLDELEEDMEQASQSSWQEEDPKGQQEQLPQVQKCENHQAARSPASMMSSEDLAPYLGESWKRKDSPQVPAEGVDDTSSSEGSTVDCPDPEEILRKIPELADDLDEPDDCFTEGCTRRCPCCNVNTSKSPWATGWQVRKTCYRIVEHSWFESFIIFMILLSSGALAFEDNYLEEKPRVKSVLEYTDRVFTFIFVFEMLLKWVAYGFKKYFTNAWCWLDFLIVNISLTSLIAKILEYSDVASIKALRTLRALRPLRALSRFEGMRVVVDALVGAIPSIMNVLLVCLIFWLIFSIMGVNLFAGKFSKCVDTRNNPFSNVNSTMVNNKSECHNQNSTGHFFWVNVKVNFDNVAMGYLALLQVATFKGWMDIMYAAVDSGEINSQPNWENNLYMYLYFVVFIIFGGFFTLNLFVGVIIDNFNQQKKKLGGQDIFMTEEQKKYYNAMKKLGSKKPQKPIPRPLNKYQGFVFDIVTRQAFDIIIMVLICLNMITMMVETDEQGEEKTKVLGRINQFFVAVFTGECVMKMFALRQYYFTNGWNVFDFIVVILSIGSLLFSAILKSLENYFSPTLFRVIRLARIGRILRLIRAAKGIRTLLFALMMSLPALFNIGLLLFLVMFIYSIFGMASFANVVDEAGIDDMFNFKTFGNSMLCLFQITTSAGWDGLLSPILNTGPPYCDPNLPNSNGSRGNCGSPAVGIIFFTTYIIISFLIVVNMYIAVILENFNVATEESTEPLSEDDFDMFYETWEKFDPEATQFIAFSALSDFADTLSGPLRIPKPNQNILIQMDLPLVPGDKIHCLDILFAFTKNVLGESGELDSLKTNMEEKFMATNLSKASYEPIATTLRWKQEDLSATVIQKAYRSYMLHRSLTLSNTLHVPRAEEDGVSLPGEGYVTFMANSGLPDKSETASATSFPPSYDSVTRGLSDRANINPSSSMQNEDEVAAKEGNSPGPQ

Usually IC50 stands for the point on the concentration scale where inhibition reaches its midpoint. The inhibition is the share of the control response that was lost under treatment. On to `C[C@@H]1NC(=O)[C@H](Cc2c[nH]c3ccccc23)NC(=O)[C@H](CCCNC(=N)N)NC(=O)[C@H](CCCNC(=N)N)NC(=O)[C@@H](N)CSSC[C@@H](C(N)=O)NC(=O)[C@H](CCCNC(=N)N)NC(=O)[C@H](CC(N)=O)NC(=O)[C@H](Cc2c[nH]c3ccccc23)NC(=O)[C@H](CCCNC(=N)N)NC1=O` [PnCS1, CRRWARWNRC ^*] (H-CRRWARWNRC-NH2; disulfide 1-10), for which the IC50 in [1] came to 0.8 ± 0.3 µM; in data set [2] it was 1 ± 0.3 µM; in data set [3], 1.1 ± 0.4 µM; in data set [4] it was 0.6 ± 0.3 µM; in data set [5] it was 2.8 ± 0.5 µM; in data set [6] it was 0.7 ± 0.3 µM. Also, the IC50 in [7] was 0.9 ± 0.2 µM; in [8], above 100 µM. Also, the inhibition at 100 µM was 97% in data set [2]; 94% in data set [4]; 94% in data set [5]; 96% in data set [6]; 0% in data set [8].

`C[C@@H]1NC(=O)[C@H](Cc2c[nH]c3ccccc23)NC(=O)[C@H](CCCNC(=N)N)NC(=O)[C@H](CCCNC(=N)N)NC(=O)[C@@H](N)CSSC[C@@H](C(N)=O)NC(=O)[C@H](CCCNC(=N)N)NC(=O)[C@H](CC(N)=O)NC(=O)[C@H](Cc2c[nH]c3ccccc23)NC(=O)[C@H](CCC(=O)O)NC1=O` [PnCS1[R6E], CRRWAEWNRC ^*] (H-CRRWAEWNRC-NH2; disulfide 1-10): the IC50 in data set [1], in data set [2], in [3], in data set [4], in data set [5] and in data set [6] was above 100 µM in each case. The concentration for half-maximal inhibition (IC50) is above 100 µM in data set [6] (read-out: IC50 NaV1.6 (Table 4), n > 5, ±SD); above 100 µM in data set [7]; above 100 µM in data set [8]. Moreover, the inhibition at 100 µM in [2] was 49%; in [4], 0%; in data set [5], 19%; in data set [6], 41%; in data set [8], 0%.

Regarding `C[C@@H]1NC(=O)[C@H](CCCCN)NC(=O)[C@H](CCCNC(=N)N)NC(=O)[C@H](CCCNC(=N)N)NC(=O)[C@@H](N)CSSC[C@@H](C(N)=O)NC(=O)[C@H](CCCNC(=N)N)NC(=O)[C@H](CC(N)=O)NC(=O)[C@H](Cc2c[nH]c3ccccc23)NC(=O)[C@H](CCCNC(=N)N)NC1=O` [PnCS1[W4K], CRRKARWNRC ^*] (H-CRRKARWNRC-NH2; disulfide 1-10), the IC50 came out at 0.4 ± 0.2 µM in [1]; 0.5 ± 0.4 µM in [2]; 1.3 ± 0.4 µM in data set [3]; 0.7 ± 0.4 µM in data set [4]; 2.7 ± 0.5 µM in [5]; 0.7 ± 0.4 µM in data set [6]. The IC50 in data set [7] was 7.4 ± 0.5 µM; in [8], above 100 µM. The inhibition at 100 µM was 75% in data set [2]; 94% in data set [4]; 89% in data set [5]; 92% in [6]; 0% in data set [8].

For `C[C@@H]1NC(=O)[C@H](Cc2ccc(O)cc2)NC(=O)[C@H](CCCNC(=N)N)NC(=O)[C@H](CCCNC(=N)N)NC(=O)[C@@H](N)CSSC[C@@H](C(N)=O)NC(=O)[C@H](CCCNC(=N)N)NC(=O)[C@H](CC(N)=O)NC(=O)[C@H](Cc2c[nH]c3ccccc23)NC(=O)[C@H](CCCNC(=N)N)NC1=O` [PnCS1[W4Y], CRRYARWNRC ^*] (H-CRRYARWNRC-NH2; disulfide 1-10), the IC50 in data set [2], in data set [4], in [5], in [6] and in [8] was above 100 µM in each case. Besides, the inhibition at 100 µM worked out at 39% in [2]; 33% in [4]; 43% in data set [5]; 42% in data set [6]; 0% in data set [8]. Moreover, in data set [9], the “% inhibition, range across NaV1.2, NaV1.4, NaV1.5 and NaV1.6” value is 33–43%.

As for `C[C@@H]1NC(=O)[C@H](Cc2c[nH]c3ccccc23)NC(=O)[C@H](CCCNC(=N)N)NC(=O)[C@H](CCCNC(=N)N)NC(=O)[C@@H](N)CSSC[C@@H](C(N)=O)NC(=O)[C@H](CCCNC(=N)N)NC(=O)[C@H](CC(N)=O)NC(=O)[C@H](CCC(=O)O)NC(=O)[C@H](CCCNC(=N)N)NC1=O` [PnCS1[W7E], CRRWARENRC ^*] (H-CRRWARENRC-NH2; disulfide 1-10), the half-maximal inhibitory concentration (IC50) in [2], in [4], in [5], in [6] and in data set [8] was above 100 µM throughout. Moreover, the inhibition at 100 µM in data set [2] is 21%; in [4], 42%; in data set [5], 33%; in [6], 27%; in [8] it was 0%.

In the case of `C[C@@H]1NC(=O)[C@H](Cc2c[nH]c3ccccc23)NC(=O)[C@H](CCCNC(=N)N)NC(=O)[C@H](CCCNC(=N)N)NC(=O)[C@@H](N)CSSC[C@@H](C(N)=O)NC(=O)[C@H](CCCNC(=N)N)NC(=O)[C@H](CC(N)=O)NC(=O)[C@H](CCCCN)NC(=O)[C@H](CCCNC(=N)N)NC1=O` [PnCS1[W7K], CRRWARKNRC ^*] (H-CRRWARKNRC-NH2; disulfide 1-10), the IC50 is 2.8 ± 0.5 µM in [2]; 1.7 ± 0.5 µM in [4]; 3 ± 0.7 µM in data set [5]; 8.2 ± 0.6 µM in [6]; above 100 µM in [8]. The inhibition at 100 µM in data set [2] was 71%; in data set [4], 87%; in data set [5] it was 90%; in [6], 82%; in data set [8], 0%.

As for `C[C@@H]1NC(=O)[C@H](Cc2c[nH]c3ccccc23)NC(=O)[C@H](CCCNC(=N)N)NC(=O)[C@H](CCCNC(=N)N)NC(=O)[C@@H](N)CSSC[C@@H](C(N)=O)NC(=O)[C@H](CCCNC(=N)N)NC(=O)[C@H](CC(N)=O)NC(=O)[C@H](Cc2ccc(O)cc2)NC(=O)[C@H](CCCNC(=N)N)NC1=O` [PnCS1[W7Y], CRRWARYNRC ^*] (H-CRRWARYNRC-NH2; disulfide 1-10), the IC50 in data set [1] was determined as 2.2 ± 0.4 µM; in data set [2] it was 7.4 ± 4.2 µM; in data set [3] it was 4.1 ± 0.8 µM; in data set [4] it was 7.8 ± 3.3 µM; in data set [5], 11.7 ± 4.1 µM; in [6] it was 0.7 ± 0.3 µM. For the same compound, the IC50 is 8.2 ± 0.3 µM in data set [7] and above 100 µM in data set [8]. Besides, the inhibition at 100 µM in [2] was 76%; in [4] it was 73%; in data set [5], 75%; in data set [6], 93%; in data set [8], 0%. The “% inhibition, range across NaV1.2, NaV1.4, NaV1.5 and NaV1.6” value in data set [9] is 73–93%.

With μ-Conotoxin KIIIA [μ-KIIIA], in [10], the “analgesic activity in inflammatory pain models” value is recorded as “analgesic in inflammatory pain models without motor impairment”.
